# Laboratory results published in article PMC10306101, “Substrate-derived Sortase A inhibitors: targeting an essential virulence factor of Gram-positive pathogenic bacteria” (Chemical Science, 2023).
# Where “and” joins values, the source holds several entries; their conditions need not be identical. Identical values can stand only once. Like-named read-outs stand apart in the source and are kept apart here. Non-standard residues stand in square brackets, D forms with d. Residues, ends and D or L forms follow the SMILES beside them. *: point of attachment. Bz = O=C(c1ccccc1)*; Sar = CNCC(=O)O
# Experiments:
# SrtA [1] = biological target: T1, SrtA (Staphylococcus aureus, UniProt Q2FV99); test: biochemical; design: species or system S. aureus; conditions: for FRET inhibition: 200 nM SrtA, 200 μM inhibitor, HEPES buffer; for FRET inhibition / inhibition at 200 µM: mean ± SE, triplicate; for IC50: IC50, inhibitor 1 μM to 1500 μM, corrected for molar extinction coefficient; for inhibition at 200 µM: read-out: FRET inhibition, 200 nM SrtA, 200 μM inhibitor, HEPES buffer
# T1 construct: His6 (N); made in house; host or cells: E. coli BL21, pET21b plasmid
# T1 sequence (Q2FV99 60-206): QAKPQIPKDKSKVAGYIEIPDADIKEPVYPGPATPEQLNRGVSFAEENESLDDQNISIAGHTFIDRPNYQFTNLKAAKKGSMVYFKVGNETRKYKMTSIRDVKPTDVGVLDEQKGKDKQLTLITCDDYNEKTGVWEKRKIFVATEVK
# Procedure: In order to screen the activity of SrtA inhibitors, a FRET-based functional assay was used which employs an internally quenched fluorescent (IQF) substrate, Abz-LPETGK(Dnp)-NH2 (Fig. S37a ^†).[5] […] 5-((C4-Nitrobenzyl)thio)-1,3,4-thiadiazol-2-amine was used as a reference inhibitor in the experiment.[42] […]
# Fluorescence resonance energy transfer assay
# For the FRET assay, the compound 5-((4-nitrobenzyl) thio)-1,3,4-thiadiazol-2-amine was used as a reference and prepared by dissolving 3 µL of the available stock (10 mM) in […] HEPES and 1% DMSO to afford a 300 µM stock concentration for the assay. This reference compound […]
# FRET assay was performed with an internally quenched fluorogenic (IQF) substrate to determine the inhibitory activity of the synthesized peptidomimetics. The assay was performed in a 30 μl reaction mixture in HEPES buffer (50 mM HEPES, 150 mM NaCl, 5 mM CaCl2, 0.05% Tween20, pH 7.5). SrtA solution (200 nM) was preincubated with compounds (200 μM) for 15 min at 22 °C followed by the addition of the substrate solution (25 μM Abz-LPETGK(Dnp)-NH2, 5 mM H-Gly3-OH, final assay concentration) in the same buffer. The cleavage of the Abz/Dnp-substrate was quantified by an increase in the fluorescence signal.
# The fluorescence signal was monitored each minute for 45 minutes and plotted to obtain the fluorescence rate as a line curve. The assay was performed in 384 well Corning NBS microplates (flat bottom, no lid, low flange, non-binding surface, non-sterile, white polystyrene).
# Fluorescence intensity was measured at emission and excitation wavelengths of […] using a Spectramax iD5 plate reader (Molecular Devices, San Jose, CA, USA). Triplicate measurements were taken for each data point to ensure the reproducibility of the results. The average value of the fluorescence signal readouts was plotted against time over […] for each compound to produce a line curve using Origin. The reference compound was used in the experiment to act as a positive control. The slope of each compound curve (Sx) and the slope of the substrate (S0) were extracted using the linear fit function in Microsoft Origin 2019. The percent inhibition was calculated according to the following equation: inhibitory rate = (1 – Sx/S 0) × 100%. For IC50 values, Sx values at different concentrations were plotted against log transformed concentration values and fitted with a sigmodial fit using the DoseResp function using Origin. The bottom asymptote of the dose-response curve was fixed at 0. The data were reported as mean ± SE%. […]
# [2] = system: S. aureus strain CCUG10778 biofilm; conditions: BHI, rabbit plasma coated plate
# S. aureus = test: Sytox Green fluorescence measurement of S. aureus incubated with inhibitors; type: cell-based; conditions: for Fluorescence value (Sytox Green, 533 nm): 24 hours, control 294.0 ± 0.1
# Procedure: To achieve this, S. aureus was again incubated with our peptidomimetic inhibitors, specifically, 18, 22, 23 and 24 at 8, 32 and 128 μg mL^−1 and harvested after 24 hours to ensure the bacteria reach their growth plateau. Peptide 24 was included to confirm the influence of the N-terminal benzyl group. The bacterial cells were permeabilized and their […] were labelled using Sytox Green and subsequently their fluorescence was measured quantitatively. […] Bacteria incubated with 32 and 128 μg mL^−1 of 18 as well as 128 μg mL^−1 of 22 were also imaged using fluorescence microscopy (Fig. 4). In the control sample, planktonic bacteria could be abundantly observed (Fig. 4a). While it was hard to distinguish the microscopy images for the less strong inhibition (Fig. 4b and c), it became evident from the sample with 128 μg mL^−1 of 18 that visually bacterial growth was affected as well (Fig. 4d) where the bacteria were much more sparsely distributed in the sample. […]
# For the fluorescence experiments S. aureus was cultured overnight in sterile TSB medium and diluted 1:250 by adding 2.5 μL bacterial culture into TSB medium in sterilized 1.5 mL Eppendorf tubes to a final volume of 500 μL. Subsequently, peptides were added to the bacteria from filter sterilized stocks in MQ-H2O to give 8, 32 and 128 μg/ml final concentrations. Then, bacteria were incubated at 37 °C for 24 hours and centrifuged for 3 minutes at 3000 rpm in an Eppendorf Microstar 30r centrifuge. The supernatant was discarded and the cells were washed once with sterilized PBS and centrifuged. 100 μL PBS-T (PBS + 0.1% Triton-X) was added to the cells for 15 minutes to induce cell membrane permeabilization. After removal of the PBS-T by centrifugation, 100 μL of 5 μM Sytox Green (Invitrogen, Waltham, MA, USA) solution in PBS […]
# was added and the cells were stained for 30 minutes, centrifuged and washed with PBS twice.
# For the fluorescence measurements, the cells were resuspended with 100 μL of PBS and added in a sterilized, white plastic polystyrene 96-well plate and their fluorescence was measured by exciting the samples at 488nm and measuring the fluorescence intensity at 533 nm in a microplate reader. All individual samples were carried out in duplicate. For the fluorescence microscopy experiments, the cells were treated in the same, but resuspended in 10 μL of PBS and 5 μL of bacterial suspension was spotted on a glass target plate dipped in a melted solution of 1.2% agarose in Tris-HCl (50 mM) to ensure fixation of the sample. The sledes were covered by a cover glass and observed on an Axio Imager Z2m fluorescence microscope (Zeiss, Jena, Germany) at 100 times magnification at the emission wavelength of […]
# Biofilm inhibition assays
# For the biofilm inhibition experiments the S. aureus strain CCUG10778 was cultured overnight in sterile BHI broth. A sterilized, clear polystyrene 96-well plate was prepared by coating with plasma by addition of 20% of final assay volume rabbit plasma to the wells and incubating overnight at 4 °C. Then, the cultured strain was diluted 1:100 by adding 2 μL into BHI medium on the plasma coated plate to a total volume of 200 μL. Subsequently, peptides were added to the bacteria from filter sterilized stocks in MQ-H2O to give 8, 32 and 128 μg/ml final concentrations and incubated for 12 hours at 37 °C without shaking. The supernatant was removed and the wells were rinsed with PBS and 100 μL of 1% crystal violet solution (diluted in PBS) was added and the biofilms were stained for 10 minutes. The wells were washed with PBS twice and 200 μL of a 95% ethanol solution in water was added to solubilize the cells for 30 minutes. 100 μL was transferred into a new 96-well plate and the absorbance measured at 595 nm using a Varioskan Lux microplate reader. All individual samples were carried out in […]
# All computational studies and analysis steps were performed employing the YASARA molecular modeling program.6, 7
# Molecular graphics were created with YASARA (www.yasara.org) and POVRay […]
# SrtA [3] = biological target: T1, SrtA; type: biochemical, S. aureus; conditions: 200 nM SrtA, inhibitor at 10 μM (detector oversaturation at 200 μM)
# [4] = system: S. aureus strain CCUG10778; test: Growth profiling of S. aureus (absorbance at 600 nm); type: cell-based; conditions: for effect on bacterial growth (absorbance plateau, OD600): 2 to 128 μg mL^−1, TSB medium, up to 48 hours
# Procedure: To assess whether our most promising compounds have a possibility of being potential antivirulent compounds, they were tested with pathogenic S. aureus bacteria to assess the peptidomimetic inhibitors for their ability to inhibit bacterial growth. Firstly, our compounds were incubated with S. aureus bacteria in a 96-well plate in Tryptic Soy Broth (TSB) medium, while we also included the reference compound used in the single-point in vitro inhibition studies. So far, the covalent binding thiadiazol reference compound was not tested in this respect, but was one of the most promising compounds identified in an earlier screening campaign.[42] The inhibitors were added at various concentrations, ranging from 2 μg mL^−1 to 128 μg mL^−1, and the absorbance at 600 nm was measured as an indication of their optical density (OD600) and by that the bacteria's ability to propagate in liquid media. In the negative control experiments, the bacteria consistently reached an OD600 of 0.6 between 6 and 12 hours (Fig. 3). […]
# For the growth profiling experiments the S. aureus strain CCUG10778 was cultured overnight in sterile TSB medium and diluted 1:100 by adding 1 μL into TSB medium in a sterilized, clear polystyrene 96-well plate to a final assay volume of 100 μL. Subsequently, peptides were added to the bacteria from filter sterilized stocks in MQ-H2O to give 2, 8, 32 and 128 μg/ml final concentrations. Then, bacteria were incubated at 37 °C for 3, 6, 12, 24, 36 or 48 hours and their absorbance was measured at 600 nm using a Varioskan Lux microplate reader (Thermo Fisher Scientific, Waltham, MA, USA). All individual samples were carried out in triplicate. […]
# Then, bacteria […]
# were incubated at 37 °C for 24 hours and centrifuged for 3 minutes at 3000 rpm in an Eppendorf Microstar 30r centrifuge. The supernatant was discarded and the cells were washed once with sterilized PBS and centrifuged. 100 μL PBS-T (PBS + 0.1% Triton-X) was added to the cells for 15 minutes to induce cell membrane permeabilization. After removal of the PBS-T by centrifugation, 100 μL of 5 μM Sytox Green (Invitrogen, Waltham, MA, USA) solution in PBS
# SrtA [5] = conditions: cited from earlier work
compound,measurement,setting,value
CbzLPRDA [Compound 14],FRET inhibition,SrtA [1],17.0 ± 2.8%
"CC(C)C[C@H](NC(=O)c1ccccc1)C(=O)N1CCC[C@H]1C(=O)N[C@@H](CCCNC(=N)N)C(=O)N[C@@H](CC(=O)O)C(=O)N(C)CC(N)=O [Compound 18, BzLPRDSar] (Bz-LPRD[Sar]-NH2)",biofilm inhibition,"[2]; 8 μg mL^−1, 12 hours",52%
same,biofilm inhibition,"[2]; 32 μg mL^−1, 12 hours",73%
same,biofilm inhibition,"[2]; 128 μg mL^−1, 12 hours",95%
same,IC50,SrtA [1],57.4 ± 1.1 µM
same,inhibition at 200 µM,SrtA [1],108 ± 6.9%
LPET-Sar [Compound 6],FRET inhibition,SrtA [1],19.4 ± 2.6%
Ado-LPRDA [Compound 3],FRET inhibition,SrtA [1],22.6 ± 2.8%
"CC(C)C[C@H](NC(=O)c1ccccc1)C(=O)N1CCC[C@H]1C(=O)N[C@@H](CCCNC(=N)N)C(=O)N[C@@H](CC(=O)O)C(=O)N[C@@H](Cc1ccccc1)C(N)=O [Compound 23, BzLPRDF] (Bz-LPRDF-NH2)",IC50,SrtA [1],114 ± 1.3 µM
same,inhibition at 200 µM,SrtA [1],113 ± 26%
ChLPRDA [Compound 12],FRET inhibition,SrtA [1],21.6 ± 4.2%
LPRDA-Ado [Compound 2],FRET inhibition,SrtA [1],30.4 ± 2.8%
LPRDP [Compound 20],FRET inhibition,SrtA [1],32% and 32.3 ± 8.7%
"H-LPRDF-NH2 [Compound 24, LPRDF]","Fluorescence value (Sytox Green, 533 nm)",S. aureus; 8 μg/ml,315.7 ± 0.6
same,"Fluorescence value (Sytox Green, 533 nm)",S. aureus; 32 μg/ml,299.9 ± 1.2
same,"Fluorescence value (Sytox Green, 533 nm)",S. aureus; 128 μg/ml,283.0 ± 0.9
same,IC50,SrtA [1],136.9 ± 1.2 µM
same,inhibition at 200 µM,SrtA [1],42.2 ± 6%
"H-LPETP-NH2 [Compound 7, LPETP]",IC50,SrtA [1],136.3 ± 1.2 µM
KSFLPATGGAE [Compound 8],FRET inhibition,SrtA [1],18% and 18.1 ± 2.9%
GTEPL [Compound 9],FRET inhibition,SrtA [1],38% and 37.7 ± 3.1%
"CC(C)C[C@H](N)C(=O)N1CCC[C@H]1C(=O)N[C@@H](CCCNC(=N)N)C(=O)N[C@@H](CC(=O)O)C(=O)N(C)CC(N)=O [Compound 5, LPRD-Sar] (H-LPRD[Sar]-NH2)",FRET inhibition,SrtA [1],68.5 ± 2.6%
same,IC50,SrtA [1],18.9 ± 1.2 µM
same,inhibition at 200 µM,SrtA [1],69%
2NapLPRDA [Compound 13],FRET inhibition,SrtA [3],47% and 47.4 ± 1.1 (at 10 μM) %
same,"effect on bacterial growth (absorbance plateau, OD600)",[4],did not have any effect
ELPRDA [Compound 27],FRET inhibition,SrtA [1],26% and 26.2 ± 2.0%
H2N-LPRDA-OH [Compound 1],FRET inhibition,SrtA [1],29.2 ± 2.6%
"H-FLPRDA-NH2 [Compound 22, FLPRDA]","Fluorescence value (Sytox Green, 533 nm)",S. aureus; 8 μg/ml,302.3 ± 0.5
same,"Fluorescence value (Sytox Green, 533 nm)",S. aureus; 32 μg/ml,297.4 ± 0.3
same,decrease in fluorescence signal (in words),"S. aureus; 128 μg mL^−1, 24 hours",minor effect
same,"Fluorescence value (Sytox Green, 533 nm)",S. aureus; 128 μg/ml,275.2 ± 1.1
same,decrease in absorbance compared to the control,"[4]; 128 μg mL^−1, 48 hours, OD600",22%
same,"effect on bacterial growth (absorbance plateau, OD600)",[4],clear effect on the plateau of the absorbance
same,FRET inhibition,SrtA [1],70.1 ± 5.7%
same,IC50,SrtA [1],185.3 ± 1.5 µM
same,inhibition at 200 µM,SrtA [1],70%
BzLPRDA [Compound 11],FRET inhibition,SrtA [1],37% and 37.2 ± 3.1%
"Nc1nnc(SCc2ccc([N+](=O)[O-])cc2)s1 [Reference (0), 5-((4-nitrobenzyl)thio)-1,3,4-thiadiazol-2-amine, reference compound]","effect on bacterial growth (absorbance plateau, OD600)",[4],did not show any activity
same,FRET inhibition,SrtA [1],77.1 ± 4.1%
same,IC50,"SrtA [5]; reported covalent inhibitor, ref 42 (supplement ref 4)",26 ± 0.7 µM
same,IC50,"SrtA [5]; reported covalent inhibitor, ref 42 (supplement ref 4), listed as 5-((C4-Nitrobenzyl)thio)-1,3,4-thiadiazol-2-amine",~26 µM
BzLPRDP [Compound 21],FRET inhibition,SrtA [1],31.0 ± 7.6%
AcLPRDA [Compound 10],FRET inhibition,SrtA [1],20.7 ± 2.9%
BzLPETP [Compound 19],FRET inhibition,SrtA [1],15.1 ± 3.8%
PEG2000-LPRDA-NH2,IC50,SrtA [5]; reported SrtA inhibitor,10.6 µM
